In patent US9169270B2, “1-phenyl-substituted heterocyclyl derivatives and their use as prostaglandin D2 receptor modulators” (Actelion Pharmaceuticals Ltd., priority 2012, dated 2015):

Target: hCRTH2 receptor (Homo sapiens (Human), UniProt Q9Y5Y4)
Experiment: hCRTH2 receptor membranes radioligand (3H-PGD2) displacement assay
Settings: hCRTH2 membrane fragments, Binding-Buffer with 0.1% BSA
Procedure: Biological Assays: Preparation of hCRTH2 Receptor Membranes and Radioligand Displacement Assay:
First, recombinant HEK293-hCRTH2 cells were detached from culture plates into 5 ml buffer A/plate (Buffer A: 5 mM Tris, 1 mM MgCl2-6H2O pH=7.4) using a rubber policeman. Cells were then transferred into centrifugation tubes and centrifuged for 5 min at 400 g. The cell pellet was resuspended in the same buffer and tubes were frozen at −80° C. Cells were thawed and membrane fragments were generated by homogenization using a polytron homogenizer (30 seconds). The membrane fragments were then centrifuged at 3000 g for 20 minutes and resuspended in buffer C (Buffer C: 75 mM Tris, 25 mM MgCl2, 250 mM Saccharose pH 7.4). Aliquots of membrane fragments were stored at −20° C.
Binding assay was performed in a final assay volume of 250 μl. First, 25 μl of test compound, previously diluted in Binding-Buffer (Binding-Buffer: 50 mM Tris-Base, 100 mM NaCl, 1 mM EDTA, 0.1% BSA (protease free), 0.01% NaN3, 10 mM MnCl2, pH 7.0) was placed into each well. […] Binding assay was started by addition of 100 μl CRTH2 membrane fragments, reaching a final concentration of 20 μg/well. For non-specific binding, PGD2 was added to the reaction mixture to […] final concentration. This assay mix was incubated for 90 minutes at room temperature and then filtered through a GF/C filter 96-well plate which was pre-soaked for 3 hours in 0.5% polyethyleneimine (PEI). The filter-wells were washed three times with ice cold Binding-Buffer. Then, 40 μl of Microscint-40 (Packard) was added to each well and the retained radioactivity quantified in a Topcount (Packard).

Sequence of hCRTH2 receptor (Q9Y5Y4 whole entry): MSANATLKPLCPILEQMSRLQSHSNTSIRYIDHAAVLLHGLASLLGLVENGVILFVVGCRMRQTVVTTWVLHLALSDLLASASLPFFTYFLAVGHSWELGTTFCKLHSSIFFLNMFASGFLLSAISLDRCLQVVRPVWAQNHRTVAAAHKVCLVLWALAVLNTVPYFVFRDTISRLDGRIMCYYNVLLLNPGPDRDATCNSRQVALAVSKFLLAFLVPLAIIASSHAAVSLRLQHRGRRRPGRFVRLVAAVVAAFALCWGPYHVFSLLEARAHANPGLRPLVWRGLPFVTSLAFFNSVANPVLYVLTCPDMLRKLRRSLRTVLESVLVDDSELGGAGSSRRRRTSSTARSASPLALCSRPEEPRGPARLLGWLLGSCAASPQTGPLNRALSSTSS

O=C(O)COc1ccc(Cl)cc1C1c2scnc2CCN1C(=O)NCc1ccccc1F (racemic) [Example 1, (±)-{4-Chloro-2-[5-(2-fluoro-benzylcarbamoyl)-4,5,6,7-tetrahydro-thiazolo[5,4-c]pyridin-4-yl]-phenoxy}-acetic acid]
IC50: 9.4 nM

O=C(O)COc1ccc(Cl)cc1C1c2scnc2CCN1C(=O)NCc1cccc(F)c1 (racemic) [Example 2, (±)-{4-Chloro-2-[5-(3-fluoro-benzylcarbamoyl)-4,5,6,7-tetrahydro-thiazolo[5,4-c]pyridin-4-yl]-phenoxy}-acetic acid]
IC50: 38.9 nM

O=C(O)COc1ccc(Cl)cc1C1c2scnc2CCN1C(=O)NCc1ccc(F)cc1 (racemic) [Example 3, (±)-{4-Chloro-2-[5-(4-fluoro-benzylcarbamoyl)-4,5,6,7-tetrahydro-thiazolo[5,4-c]pyridin-4-yl]-phenoxy}-acetic acid]
IC50: 124 nM

O=C(O)COc1ccc(Cl)cc1C1c2sc(C(F)(F)F)nc2CCN1C(=O)OCc1ccccc1 (racemic) [Example 12, (±)-4-(2-Carboxymethoxy-5-chloro-phenyl)-2-trifluoromethyl-6,7-dihydro-4H-thiazolo[5,4-c]pyridine-5-carboxylic acid benzyl ester]
IC50: 6.5 nM

CC(C)c1nc2c(s1)C(c1cc(Cl)ccc1OCC(=O)O)N(C(=O)OCc1ccccc1)CC2 (racemic) [Example 13, (±)-4-(2-Carboxymethoxy-5-chloro-phenyl)-2-isopropyl-6,7-dihydro-4H-thiazolo[5,4-c]pyridine-5-carboxylic acid benzyl ester]
IC50: 64.8 nM

O=C(O)COc1ccc(Cl)cc1C1c2sc(C3CC3)nc2CCN1C(=O)OCc1ccccc1 (racemic) [Example 14, (±)-4-(2-Carboxymethoxy-5-chloro-phenyl)-2-cyclopropyl-6,7-dihydro-4H-thiazolo[5,4-c]pyridine-5-carboxylic acid benzyl ester]
IC50: 65.7 nM

Cc1nc2c(s1)C(c1cc(Cl)ccc1OCC(=O)O)N(C(=O)OCc1ccccc1)CC2 (racemic) [Example 15, (±)-4-(2-Carboxymethoxy-5-chloro-phenyl)-2-methyl-6,7-dihydro-4H-thiazolo[5,4-c]pyridine-5-carboxylic acid benzyl ester]
IC50: 6.2 nM

CCc1nc2c(s1)C(c1cc(Cl)ccc1OCC(=O)O)N(C(=O)OCc1ccccc1)CC2 (racemic) [Example 16, (±)-4-(2-Carboxymethoxy-5-chloro-phenyl)-2-ethyl-6,7-dihydro-4H-thiazolo[5,4-c]pyridine-5-carboxylic acid benzyl ester]
IC50: 14.2 nM

O=C(O)COc1ccc(Cl)cc1C1c2sc(Br)nc2CCN1C(=O)OCc1ccccc1 (racemic) [Example 20, (±)-2-Bromo-4-(2-carboxymethoxy-5-chloro-phenyl)-6,7-dihydro-4H-thiazolo[5,4-c]pyridine-5-carboxylic acid benzyl ester]
IC50: 3 nM

O=C(O)COc1ccc(Cl)cc1C1c2scnc2CCN1C(=O)CCOc1ccc(F)cc1 (racemic) [Example 21, (±)-(4-Chloro-2-{5-[3-(4-fluoro-phenoxy)-propionyl]-4,5,6,7-tetrahydro-thiazolo[5,4-c]pyridin-4-yl}-phenoxy)-acetic acid]
IC50: 19.6 nM

O=C(O)COc1ccc(Cl)cc1C1c2scnc2CCN1C(=O)[C@@H]1C[C@H]1c1ccccc1C(F)(F)F (mixture of isomers) [Example 23, (±)-(4-Chloro-2-{trans-5-[2-(2-trifluoromethyl-phenyl)-cyclopropanecarbonyl]-4,5,6,7-tetrahydro-thiazolo[5,4-c]pyridin-4-yl}-phenoxy)-acetic acid]
IC50: 6.5 nM

O=C(O)COc1ccc(Cl)cc1C1c2scnc2CCN1C(=O)[C@@H]1C[C@H]1c1ccccc1Cl (mixture of isomers) [Example 24, (±)-(4-Chloro-2-{trans-5-[2-(2-chloro-phenyl)-cyclopropanecarbonyl]-4,5,6,7-tetrahydro-thiazolo[5,4-c]pyridin-4-yl}-phenoxy)-acetic acid]
IC50: 7.3 nM

Cc1ccccc1[C@@H]1C[C@H]1C(=O)N1CCc2ncsc2C1c1cc(Cl)ccc1OCC(=O)O (mixture of isomers) [Example 25, (±)-{4-Chloro-2-[trans-5-(2-o-tolyl-cyclopropanecarbonyl)-4,5,6,7-tetrahydro-thiazolo[5,4-c]pyridin-4-yl]-phenoxy}-acetic acid]
IC50: 6.5 nM

COc1ccc2[nH]cc(CCC(=O)N3CCc4ncsc4C3c3cc(Cl)ccc3OCC(=O)O)c2c1 (racemic) [Example 26, (±)-(4-Chloro-2-{5-[3-(5-methoxy-1H-indol-3-yl)-propionyl]-4,5,6,7-tetrahydro-thiazolo[5,4-c]pyridin-4-yl}-phenoxy)-acetic acid]
IC50: 45.1 nM

Cc1[nH]c2ccccc2c1CCC(=O)N1CCc2ncsc2C1c1cc(Cl)ccc1OCC(=O)O (racemic) [Example 27, (±)-(4-Chloro-2-{5-[3-(2-methyl-1H-indol-3-yl)-propionyl]-4,5,6,7-tetrahydro-thiazolo[5,4-c]pyridin-4-yl}-phenoxy)-acetic acid]
IC50: 219 nM

Cc1ccccc1CCC(=O)N1CCc2ncsc2C1c1cc(Cl)ccc1OCC(=O)O (racemic) [Example 29, (±)-{4-Chloro-2-[5-(3-o-tolyl-propionyl)-4,5,6,7-tetrahydro-thiazolo[5,4-c]pyridin-4-yl]-phenoxy}-acetic acid]
IC50: 25.6 nM

O=C(O)COc1ccc(Cl)cc1C1c2scnc2CCN1C(=O)CCCc1ccccc1F (racemic) [Example 30, (±)-(4-Chloro-2-{5-[4-(2-fluoro-phenyl)-butyryl]-4,5,6,7-tetrahydro-thiazolo[5,4-c]pyridin-4-yl}-phenoxy)-acetic acid]
IC50: 8.1 nM

O=C(O)COc1ccc(Cl)cc1C1c2scnc2CCN1C(=O)COCc1ccccc1Cl (racemic) [Example 31, (±)-(4-Chloro-2-{5-[2-(2-chloro-benzyloxy)-acetyl]-4,5,6,7-tetrahydro-thiazolo[5,4-c]pyridin-4-yl}-phenoxy)-acetic acid]
IC50: 5 nM

Cc1ccc(OCC(=O)N2CCc3ncsc3C2c2cc(Cl)ccc2OCC(=O)O)c(C)n1 (racemic) [Example 32, (±)-(4-Chloro-2-{5-[2-(2,6-dimethyl-pyridin-3-yloxy)-acetyl]-4,5,6,7-tetrahydro-thiazolo[5,4-c]pyridin-4-yl}-phenoxy)-acetic acid]
IC50: 83.2 nM

O=C(O)COc1ccc(Cl)cc1C1c2scnc2CCN1C(=O)COc1ccccc1 (racemic) [Example 34, (±)-{4-Chloro-2-[5-(2-phenoxy-acetyl)-4,5,6,7-tetrahydro-thiazolo[5,4-c]pyridin-4-yl]-phenoxy}-acetic acid]
IC50: 87.4 nM

C[C@@H](CC(=O)N1CCc2ncsc2C1c1cc(Cl)ccc1OCC(=O)O)c1ccccc1 (mixture of isomers) [Example 35, (±)-{4-Chloro-2-[5-((S)-3-phenyl-butyryl)-4,5,6,7-tetrahydro-thiazolo[5,4-c]pyridin-4-yl]-phenoxy}-acetic acid]
IC50: 355 nM

O=C(O)COc1ccc(Cl)cc1C1c2scnc2CCN1C(=O)C1Cc2ccccc2C1 (racemic) [Example 36, (±)-{4-Chloro-2-[5-(indane-2-carbonyl)-4,5,6,7-tetrahydro-thiazolo[5,4-c]pyridin-4-yl]-phenoxy}-acetic acid]
IC50: 733 nM

O=C(O)COc1ccc(Cl)cc1C1c2scnc2CCN1C(=O)CC1(c2ccccc2)CC1 (racemic) [Example 37, (±)-(4-Chloro-2-{5-[2-(1-phenyl-cyclopropyl)-acetyl]-4,5,6,7-tetrahydro-thiazolo[5,4-c]pyridin-4-yl}-phenoxy)-acetic acid]
IC50: 130 nM

C[C@H](CC(=O)N1CCc2ncsc2C1c1cc(Cl)ccc1OCC(=O)O)c1ccccc1 (mixture of isomers) [Example 38, (±)-{4-Chloro-2-[5-((R)-3-phenyl-butyryl)-4,5,6,7-tetrahydro-thiazolo[5,4-c]pyridin-4-yl]-phenoxy}-acetic acid]
IC50: 12.2 nM

O=C(O)COc1ccc(Cl)cc1[C@@H]1c2scnc2CCN1C(=O)C[C@H]1OCCc2ccccc21 (racemic) [Example 39, (±)-{4-Chloro-2-[5-((±)-2-isochroman-1-yl-acetyl)-4,5,6,7-tetrahydro-thiazolo[5,4-c]pyridin-4-yl]-phenoxy}-acetic acid]
IC50: 99.1 nM

CC(C)(C)CC(=O)N1CCc2ncsc2C1c1cc(Cl)ccc1OCC(=O)O (racemic) [Example 40, (±)-{4-Chloro-2-[5-(3,3-dimethyl-butyryl)-4,5,6,7-tetrahydro-thiazolo[5,4-c]pyridin-4-yl]-phenoxy}-acetic acid]
IC50: 950 nM

O=C(O)COc1ccc(Cl)cc1C1c2scnc2CCN1C(=O)CC1CC1 (racemic) [Example 41, (±)-{4-Chloro-2-[5-(2-cyclopropyl-acetyl)-4,5,6,7-tetrahydro-thiazolo[5,4-c]pyridin-4-yl]-phenoxy}-acetic acid]
IC50: 83.9 nM

O=C(O)COc1ccc(Cl)cc1C1c2scnc2CCN1C(=O)Cc1n[nH]c2ccccc12 (racemic) [Example 44, (±)-{4-Chloro-2-[5-(2-1H-indazol-3-yl-acetyl)-4,5,6,7-tetrahydro-thiazolo[5,4-c]pyridin-4-yl]-phenoxy}-acetic acid]
IC50: 48.1 nM
